Patent US4551460A, “Pyrido[2,1-b]quinazoline derivatives useful as agents for treatment of allergic conditions and vascular disorders involving thrombosis” (priority 1983, dated 1985)
Where a name gives a salt, the structure may show the parent alone. Read-outs that look alike come from different tables or passages of the source.

Columns and labels:
[1] = tested on: arachidonic acid induced platelet aggregation; test: Arachidonic acid induced platelet aggregation in vitro; assay type: cell-based; conditions: read-out: AA (IC50, arachidonic acid induced platelet aggregation)
Protocol: (§1) (1) Assay for Platelet Aggregation In Vitro
(§2) The turbidometric method of G. V. R. Born, Nature 194, 927 (1962) is used. Platelet rich plasma (PRP) and platelet poor plasma (PPP) are prepared with 0.38% sodium citrate-treated blood. Speed and time of centrifugation varied with different species; human:160 g for 20 minutes, dog:160 g for 15 minutes, guinea pig and rabbit:160 g for 15 minutes, and rat:230 g for 10 minutes. Aggregation is monitored with a Payton dual channel module or Chronolog lumiaggregometer when the release of ATP is simultaneously measured. 0.45 ml of PRP is added to a cuvette and prewarmed to 37° C. The stimulant (arachidonic acid or synthetic platelet activating factor) is added in volumes of 50 μl; all other agents in 5 μl. Vehicles are added to samples not containing agents. 0 to 100% light transmission is set with PRP and PPP. % aggregation is calculated from the % increase in light transmission at 5 minutes after the addition of the aggregating agent. For inhibition of aggregation studies the inhibitor is added first and preincubated with the platelets for 1 minute with stirring, followed by the stimulant. % inhibition is calculated from the % aggregation with and without the test compound. [formula]

[2] = tested on: platelet activating factor induced platelet aggregation; test: Platelet activating factor induced platelet aggregation in vitro; assay type: cell-based; conditions: racemic platelet activating factor; read-out: PAF (IC50, platelet activating factor induced platelet aggregation)
Protocol: as §1, §2

[3] = tested on: histamine-induced constriction in guinea pig ilea; test: Antagonism of histamine-induced constriction in guinea pig ilea; conditions: 1×10^-7 M histamine
Protocol: (f) Antagonism of Histamine-induced Constriction in Guinea Pig Ilea
Antihistaminic activity was determined on a segment of guinea pig ileum that was suspended in a 37° C. bath of oxygenated Tyrodes solution. At 4 minute intervals, the ileum was challenged with 1×10^-7 M histamine for sufficient time to produce a peak contraction and then washed with fresh Tyrodes solution. After the tissue response to histamine had stabilized, the ileum was pretreated with the standard antihistaminic compound, pyrilamine maleate, for 1 minute prior to rechallenge with histamine, the contraction recorded, and the tissue washed with Tyrodes solution. […] By the IC50 for pyrilamine maleate in the test system was 1×10^-8 M. IC50 's for test drugs were determined by this same procedure.

[4] = tested on: leukotriene E (LTE) induced skin wheal formation in rat skin; test: LTE-induced skin wheal formation in rat; assay type: in vivo; conditions: for ED50: rat skin wheal, read-out: ID50 (the source's name)
Protocol: (a) Methodology for LTE-induced Skin Wheal Formation in Rat. The ability of a drug to inhibit leukotriene E (LTE) induced skin wheal formation in rat skin is measured. In this model system a dose of LTE which gives a maximal wheal response, is injected (in 0.05 ml of saline) intradermally into anesthetized rats which have been pretreated for 30 minutes with 50 mg/kg of pyrilamine maleate and 4 mg/kg of methyl […] maleate (both administered intraperitoneally). The animal is then immediately treated with test drug (at 10 mg/kg, i.v.) followed by an intravenous injection of Evans blue (0.5%) into the tail vein of the animal. Thirty minutes later the animals are sacrificed and the increase in capillary permeability induced by LTE is reflected by the migration of dye into the injection point in the skin (the response being quantitated by the size, in mm, of the dye spot in the skin). The average response in 5 animals (4 intradermal injections of LTE per animal) treated with the test compound is compared with the response elicited in a similar group of animals which were not treated with the drug. For oral studies, the test animals are pretreated two hours prior to intradermal injection of LTE.

[5] = tested on: leukotriene E induced bronchoconstriction; test: LTE-induced bronchoconstriction in guinea pigs, in vivo (i.v. / oral); design: species or system guinea pig (Hartley strain); conditions: for ED50: read-out: ID50 (the source's name)
[6] = LD50 in mice (acute toxicity); conditions: mouse, in vivo, po, orally
[7] = tested on: acetylcholine-induced constriction in guinea pig ilea; test: Antagonism of acetylcholine-induced constriction in guinea pig ilea; conditions: 5.0×10^-7 M acetylcholine; read-out: IC50 antagonism of acetylcholine-induced constrictions
Protocol: (e) Antagonism of Acetylcholine-induced Constriction in Guinea Pig Ilea
Anticholinergic activity was determined on a segment of guinea pig ileum that was suspended in a 37° C. bath of oxygenated Tyrodes solution. At 4 minute intervals, the ileum was challenged with 5.0×10^-7 M acetylcholine for sufficient time to produce a peak contraction and then washed with fresh Tyrodes solution. After the tissue response to acetylcholine had stablized, the ileum was pretreated with the standard anticholinergic, atropine sulfate, for 1 minute prior to rechallenge with acetylcholine, the contraction recorded and the tissue washed with Tyrodes solution. […] The IC50 for atropine was 1×10^-8 M. THe IC50 's for test drugs were determined by this same procedure.

[8] = tested on: leukotriene E induced bronchoconstriction; test: Guinea pig bronchoconstriction, in vivo (aerosol); design: species or system guinea pig (Hartly strain); conditions: aerosol at concentration inhibiting bronchoconstriction by 80%
Protocol: (c) Guinea Pig Bronchoconstriction, In Vivo (Aerosol):
Male guinea pigs (Hartly strain) weighing 300 to 500 g are anesthetized with urethane (2 g/kg) intraperitoneally and a polyethylene cannula is inserted into the jugular vein for drug administration. Tracheal pressure is recorded from a cannula inserted in the trachea and connected to a Statham pressure transducer. After surgical preparation of the animals, a period of time is allowed for pulmonary functions to stabilize. The test compound is administered according to the following protocol. Propranolol (0.1 mg/kg) is administered intravenously while the animals breathed spontaneously. Five minutes thereafter, the animals are exposed for a five minute period to a 1% (w/v) aerosol solution of test compound (adjusted to an alkaline pH where necessary for drug solubilization) or to distilled water of the appropriate pH (for control purposes). A Monaghan (Model 750) ultrasonic nebulizer is used to administer all test compounds by inhalation. The nebulizer ultrasonic frequency is adjusted to produce particles in the 1-8μ diameter range (average 3μ). Aqueous solutions are prepared fresh and introduced into the chamber of the nebulizer. The output of the nebulizer is made available to the animal by directing a bias flow of aerosol through a y tube connected to the tracheal cannula. At the end of the exposure period, the animals are paralyzed with succinylcholine (1.2 mg/kg, i.v.) and mechanically respirated (Harvard rodent respirator) at 40 breaths/minute and 2.5 cc tidal volume. Animals are then challenged with a maximum constrictory dose of leukotriene E delivered intravenously 30 seconds after administration of the succinylcholine.
The change (cm H2 O) between pre and peak ventilatory pressure readings is averaged for three control animals and five drug treated animals. The percent inhibition is calculated from the following formula:
(Control-Drug Tested/Control)×100
When various drug concentrations are tested, the percent inhibition at each concentration is plotted as log concentration (abscissa) versus percent inhibition (ordinate) and the IC50 is determined from linear regression analysis.
In order to determine the aerosol half-life (t 1/2), the animals are prepared as described above, except that the time between aerosol exposure and challenge with leukotriene E is varied. All compounds are administered at the concentration necessary to inhibit leukotriene-induced bronchoconstriction by 80%. Biological half-life is calculated from plots of time (abscissa) versus log percent inhibition (ordinate).

[9] = tested on: SRS-A induced contraction of guinea pig ileum; test: In vitro SRS-A antagonism; conditions: 30 seconds pretreatment
Protocol: (j) In vitro SRS-A Antagonism
SRS-A was determined by bioassay on the guinea pig ileum using a modification of the method described by Orange et al., Adv. Immunol., 1969, 10, 105. A 1.5 cm segment of the ileum, obtained from male guinea pigs (175-200 g), was suspended in an organ bath containing Tyrodes solution with 10^-6 M atropine sulfate and 10^-6 M pyrilamine maleate. The bath was maintained at 37° C. and gassed with a mixture of 95 percent oxygen and 5 percent carbon dioxide. The ileum was attached to a strain gauge transducer and isotonic contractions recorded by a strip chart recorder. A resting tension of 0.5 g was applied and the tissue allowed to equilibrate for 1 hour.
The SRS-A used in these studies was obtained by challenging a large quantity of chopped lung fragments from actively sensitized guinea pigs with egg albumin in vitro. The animals were sensitized to egg albumin by an intraperitoneal injection of the antigen (1 ml of 10 mg/ml) in saline 28 to 45 days prior to challenge. The in vitro challenge was carried out by first preincubating the lung tissue (40 mg/ml) at 37° C. in Tyrodes solution for 5 minutes, adding the egg albumin ([…] final concentration) to the fragments and after a 10 minute challenge, separating the media containing the SRS-A from the lung tissue by filtration on Whatman #1 filter paper. The concentration of SRS-A in the filtrate was calibrated by comparison of the contraction amplitude elicited in the bioassay system by a given volume of the supernatant with contractions obtained by varying concentrations of histamine. One unit of SRS-A is equivalent to that quantity which will give the same contraction as 5 ng of histamine. After standarization, the SRS-A was stored in small aliquots at -80° C. for further use. […] SRS-A antagonism was determined by pretreating the ileum with drug for 30 seconds prior to the addition of a concentration of SRS-A which have a submaximal response, determination of the amplitude of contraction elicited in the presence of drug and then washing the ileum with Tyrodes. […]

Row | SMILES | IC50 [1] | IC50 [2] | further results
1 | CC(C)c1ccc2nc3ccc(C(=O)NCCCCCc4ccncc4)cn3c(=O)c2c1 [Example 11, N-[5-(4-Pyridyl)pentyl]-2-(1-methylethyl)-11-oxo-11H-pyrido[2,1-b]quinazoline-8-carboxamide] | < 10 µM | < 10 µM | –
2 | CC(C)c1ccc2nc3ccc(C(=O)NCCSc4ccncc4)cn3c(=O)c2c1 [Example 12, N-[2-(4-Pyridylthio)ethyl]-2-(1-methylethyl)-11-oxo-11H-pyrido[2,1-b]quinazoline-8-carboxamide] | < 10 µM | < 10 µM | –
3 | CC(C)c1ccc2nc3ccc(C(=O)OCCCc4cccnc4)cn3c(=O)c2c1 [Example 1, 2-(1-methylethyl)-11-oxo-11H-pyrido[2,1-b]quinazoline-8-carboxylic acid 3-(3-pyridyl)propyl ester] | > 10 µM | < 10 µM | –
4 | COc1ccc(CN(CCN(C)C)c2ccccn2)cc1 [pyrilamine maleate, reference compound] | – | – | IC50 [3]: 0.01 µM
5 | CC(C)Oc1ccc2nc3ccc(C(=O)NCCCCc4cccnc4)cn3c(=O)c2c1 [Example 19, 2-(1-Methylethoxy)-N-[4-(3-pyridyl)butyl]-11-oxo-11H-pyrido[2,1-b]quinazoline-8-carboxamide] | < 10 µM | < 10 µM | –
6 | CC(C)c1ccc2nc3ccc(C(=O)NCCCCc4ccncc4)cn3c(=O)c2c1 [2-(1-methylethyl)-N-[4-(4-pyridyl)butyl]-11-oxo-11H-pyrido[2,1-b]quinazoline-8-carboxamide] | > 10 µM | < 10 µM | ED50 ([4]; iv): 10 mg/kg; ED50 ([4]; po): 90 mg/kg; ED50 ([5]; Cavia porcellus, iv): 1.9 mg/kg; ED50 ([5]; Cavia porcellus, po, orally (2 hours pretreatment)): 57 mg/kg; LD50 [6]: > 1000 mg/kg
7 | CN1[C@@H]2CC[C@H]1CC(OC(=O)C(CO)c1ccccc1)C2 (stereo partly shown) [atropine, atropine sulfate, reference compound] | – | – | IC50 [7]: 0.01 µM
8 | Cc1ccc2nc3ccc(C(=O)NCCCCc4cccnc4)cn3c(=O)c2c1 [Example 17, 2-Methyl-N-[4-(3-pyridyl)butyl]-11-oxo-11H-pyrido[2,1-b]quinazoline-8-carboxamide] | < 10 µM | > 10 µM | –
9 | CC(C)c1ccc2nc3ccc(C(=O)NCCCCCn4ccnc4)cn3c(=O)c2c1 [Example 16, N-[5-(1H-Imidazol-1-yl)pentyl]-2-(1-methylethyl)-11-oxo-11H-pyrido[2,1-b]quinazoline-8-carboxamide] | < 10 µM | > 10 µM | –
10 | CC(C)NCC(O)c1ccc(O)c(O)c1 (stereo not shown) [Isoproterenol] | – | – | Biological half-life [8]: 19.4 min
11 | O=C(NCCCCc1cccnc1)c1ccc2nc3ccc(O)cc3c(=O)n2c1 [Example 22, 2-Hydroxy-N-[4-(3-pyridyl)butyl]-11-oxo-11H-pyrido[2,1-b]quinazoline-8-carboxamide] | < 10 µM | < 10 µM | –
12 | CCCc1c(OCC(O)COc2ccc3c(=O)cc(C(=O)O)oc3c2CCC)ccc(C(C)=O)c1O (stereo not shown) [FPL 55712, 7-[3-(4-Acetyl-3-hydroxy-2-propylphenoxy)-2-hydroxypropoxy]-4-oxo-8-propyl-4H-1-benzopyran-2-carboxylic acid, reference compound] | – | – | inhibition at 10 mg/kg ([4]; Rattus norvegicus, iv, 10 mg/kg): 88%; oral activity, LTE-induced skin wheal ([4]; orally): inactive orally; inhibition at 10 mg/kg ([5]; Cavia porcellus, iv, 10 mg/kg): 98%; oral activity, LTE-induced bronchoconstriction ([5]; orally): orally inactive; Biological half-life [8]: 77 min; IC50 [9]: 0.03 µM
13 | CCCCC[C@H](O)/C=C/[C@H]1[C@H](O)CC(=O)[C@@H]1C/C=C\CCCC(=O)O [PGE2] | – | – | Biological half-life [8]: 2.1 min
